pIC50: −log10 of the molar value. Values joined by “and” are separate entries in the source; they are usually repeats but may differ in a detail not shown here. Equal values may be shown once.
Test system: S. typhi GFP reporter counter-screen, fluorescence, 4 h
Experiment: S. typhi counter-screen signal inhibition – fluorescence, 4 h, counter-screen for PhoP regulon inhibitor project, dose response (AID 2384)

Compound | pIC50
CCOc1ccc(OCCSc2nc(C)cc(=O)[nH]2)cc1 | 3.83
CCC(C)N1CCC2(CC1)N=c1c(c3c4c5c(C)c(O)c3c(O)c1=NC(=O)C(C)=CC=C[C@H](C)[C@H](O)[C@@H](C)[C@@H](O)[C@@H](C)[C@H](OC(C)=O)[C@H](C)[C@@H](OC)C=CO[C@@](C)(O5)C4=O)N2 (stereo partly specified) | 5.27
C=CC1=C(C(=O)O)N2C(=O)[C@@H](NC(=O)/C(=N\O)c3csc(N)n3)[C@H]2SC1 (stereo in doubt) | 4.81
O=[N+]([O-])c1ccc(O)c(/C=N/Nc2ccccn2)c1 | 5.03
NC(N)=N/N=C/c1ccc(OCc2ccc(Cl)cc2)cc1 | 4.57
COc1cc(CNC2CCCC2)cc(Cl)c1OCc1ccccc1Cl | 4.42
CN(C)CC/C=C1/c2ccccc2Sc2ccc(Cl)cc21 | 4.52
Cc1ccc(C(=O)N/C(=C\c2ccc(-c3ccc(Cl)cc3)o2)C(=O)NCCCN(C)C)cc1 | 4.44
CC[n+]1c(/C=C/N(C)c2ccccc2)n(-c2ccccc2)c2ccc(-c3nc4ccccc4s3)cc21 | 5.03
Oc1c(Br)cc(Br)cc1C=Nc1ccc2[nH]ncc2c1 | 4.66
c1ccc(CNc2nc(N3CCN(Cc4ccccc4)CC3)nc3ccccc23)cc1 | 4.60
CCN1CCCC1Cn1cnc2c([nH]c3ccc(Cl)cc32)c1=O (stereo unspecified) | 3.93
O=C(Nc1nccs1)c1ccc(Cl)cc1[N+](=O)[O-] | 4.01
Oc1cc(Cl)ccc1Oc1ccc(Cl)cc1Cl | > 6.26
CC1(C)CC(N2CCN(C(c3ccccc3)c3ccccc3)CC2)=CC(=[N+]2CCCCC2)C1 | 4.20
Cc1cc(/C=C\c2ccc3cc(N(C)C)ccc3[n+]2C)c(C)n1-c1ccccc1 | 4.66
CCOc1ccc(Nc2nc(N)c3ccccc3n2)cc1 | 4.35
c1ccc(Sc2cccc3ccccc23)c(CNC2=NCCN2)c1 | 4.40
CC1(C)N=C(N)NC(Nc2cccc(Br)c2)=N1 | 4.14

Compound | pIC50
O=C(Nc1ccc([N+](=O)[O-])cc1Cl)c1cc(Cl)ccc1O | 4.71
CN1CCN(C2=Cc3ccccc3Sc3cc(F)c(Cl)cc32)CC1 | 4.57
C=C1c2cccc(O)c2C(O)=C2C(=O)[C@]3(O)C(O)=C(C(N)=O)C(=O)[C@@H](N(C)C)[C@@H]3[C@@H](O)[C@H]12 | > 6.64
Cc1cccc(NC2=NC3(CCCCC3)N=C(N)N2)c1 | 4.12
N=c1n(Cc2ccc(Cl)cc2)c2ccccc2n1CC(O)COc1ccccc1 (stereo unspecified) | 4.44
O=C(C[n+]1cc(-c2ccccc2)n2c1CCC2)Nc1nc(-c2ccc(F)cc2)cs1 | 4.43
CN(C)CCCN1c2ccccc2Sc2ccc(Cl)cc21 | 4.46 and 4.50
CCCCCCCSc1cc(OC)c(CCNC)cc1OC | 4.48
CCn1cc(C(=O)O)c(=O)c2cc(F)c(N3CCN(C)CC3)cc21 | 5.91
CN1CCCN(S(=O)(=O)c2ccc3ccccc3c2)CC1 | 4.34
O=C(N/N=C\c1cccc([N+](=O)[O-])c1O)C1COc2ccccc2O1 (stereo unspecified) | 4.93
CNCCCC1Sc2ccccc2Oc2ccccc21 (stereo unspecified) | 4.33
Cc1cc(NC(=O)c2ccc3[nH]c(C)c(C)c3c2)ccn1 | 4.18
C=CC1=C(C(=O)O)N2C(=O)[C@@H](NC(=O)/C(=N/OCC(=O)O)c3csc(N)n3)[C@H]2SC1 | 4.78
Cc1ccc2c(c1)N/C(=C(\C=C(/Cl)[N+](=O)[O-])[N+](=O)[O-])N2 | 3.88
O=C(Nc1c2ccccc2nc2ccccc12)C(Cl)(Cl)Cl | 4.10
CC[C@@H](C)[C@H](CNC)NC[C@@H](Cc1cccc2ccccc12)NCCc1cccc(C(F)(F)F)c1 | 4.73
O=C(N/N=C\c1ccc(Cl)s1)c1cccs1 | 4.04
COc1cc(/C=N/NC(=O)c2cncc(Br)c2)cc([N+](=O)[O-])c1O | 4.72

Compound | pIC50
CCOc1cccc(CNCCc2c(C)[nH]c3ccc(OC(F)(F)F)cc23)c1O | 4.51
COc1cc(/C=C2/C(=O)NN(c3ccc(F)cc3)C2=O)cc([N+](=O)[O-])c1O | 4.20
O=C(N/N=C/c1ccc([N+](=O)[O-])s1)c1cccnc1 | 4.46
C(=N/Nc1nccs1)/c1cccnc1 | 4.31
CCCCn1c(NS(=O)(=O)c2ccccc2)c(S(=O)(=O)c2ccc(C)cc2)c2nc3ccccc3nc21 | 5.03
Cc1ccc(NNS(=O)(=O)c2ccc(C)cc2)cc1 | 3.95
CCN1CCN(CCCNC(=O)c2ccc(/C=C3/Sc4ccccc4N(Cc4ccccc4F)C3=O)cc2)CC1 | 4.07
CCN1CCN(C(=O)Nc2ccc(Cc3ccc(NC(=O)N4CCN(CC)CC4)cc3)cc2)CC1 | 4.01
CCc1ccc(-c2nn(-c3ccccc3)cc2CSC(=N)N)cc1 | 4.71
CCCCCCCSc1cc(OC)c(CCN(C)C)cc1OC | 4.51
COc1c(N2CCN[C@H](C)C2)c(F)cc2c(=O)c(C(=O)O)cn(C3CC3)c12 | 5.30
O=C(CN1CC[n+]2c(-c3cccs3)csc21)c1ccc(-c2ccccc2)cc1 | 4.69
CC[N+](C)(CC)CCC[n+]1c(-c2ccccc2)c2cc(N)ccc2c2ccc(N)cc21 | 3.89
CNC[C@@H](CC1CCCCC1)NC[C@H](CC(C)C)NCCc1cccc(C(F)(F)F)c1 | 4.73
COc1cc(/C=N/N=C(N)N)ccc1OCc1ccc(Cl)cc1 | 4.33
CSc1nc2ccc(Cl)cc2[nH]1 | 4.13
C/C(=N\NC(=O)c1ccc(Cl)cc1)c1ccccn1 | 4.54
CCCCCCCCCCOC(=O)Cn1c(COc2cccc(OC)c2)[n+](C)c2ccccc21 | 4.99
